Source: the supplement of paper PMC5908809

Key:
[1] = test system: normal NK cells expanded with K562-aAPC; assay: drug sensitivity score (DSS) (DSS units); higher = more sensitive; extreme values may be limits of the assay; settings: 72 h; IL-2 2.5 ng/mL
Experimental: (§1)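 Drug sensitivity and resistance testing on K562-aAPC-expanded normal NK cells: 5 concentrations (10-fold steps over a 10,000-fold range), 72 h at 37 °C, viability by CellTiter-Glo normalised to DMSO and benzethonium chloride controls; DSS from the fitted curve.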

[2] = test system: normal primary NK cells, pool 1 (3 donors) (IL-2 2.5 ng/mL); assay: as above; settings: 72 h
[3] = test system: NK-YS (IL-2 2.5 ng/mL); assay: as above; settings: 72 h
[4] = test system: normal primary NK cells, pool 2 (3 donors) (IL-2 2.5 ng/mL); assay: as above; settings: 72 h
[5] = test system: normal primary NK cells, pool 3 (3 donors) (IL-2 2.5 ng/mL); assay: as above; settings: 72 h
[6] = test system: YT (IL-2 2.5 ng/mL); assay: as above; settings: 72 h
[7] = test system: NK-92 (IL-2 2.5 ng/mL); assay: as above; settings: 72 h
[8] = test system: DERL-7 (IL-2 2.5 ng/mL); assay: as above; settings: 72 h
[9] = test system: NKL (IL-2 2.5 ng/mL); assay: as above; settings: 72 h
[10] = test system: KHYG-1 (IL-2 2.5 ng/mL); assay: as above; settings: 72 h
[11] = test system: normal primary NK cells, pool 1 (3 donors), resting (IL-2 0 ng/mL); assay: as above; settings: 72 h
[12] = test system: SNK-6 (IL-2 2.5 ng/mL); assay: as above; settings: 72 h
[13] = test system: IMC-1 (IL-2 20 ng/mL); assay: as above; settings: 72 h
[14] = test system: KAI3 (IL-2 2.5 ng/mL); assay: as above; settings: 72 h
[15] = test system: normal primary NK cells, pool 1 (3 donors) (IL-2 2.5 ng/mL); assay: percent inhibition of viability; higher = more inhibition; settings: 72 h
[16] = test system: NK-YS (IL-2 2.5 ng/mL); assay: as above; settings: 72 h
[17] = test system: normal primary NK cells, pool 2 (3 donors) (IL-2 2.5 ng/mL); assay: as above; settings: 72 h
[18] = test system: normal primary NK cells, pool 3 (3 donors) (IL-2 2.5 ng/mL); assay: as above; settings: 72 h
[19] = test system: YT (IL-2 2.5 ng/mL); assay: as above; settings: 72 h
[20] = test system: NK-92 (IL-2 2.5 ng/mL); assay: as above; settings: 72 h
[21] = test system: DERL-7 (IL-2 2.5 ng/mL); assay: as above; settings: 72 h
[22] = test system: NKL (IL-2 2.5 ng/mL); assay: as above; settings: 72 h
[23] = test system: KHYG-1 (IL-2 2.5 ng/mL); assay: as above; settings: 72 h
[24] = test system: normal primary NK cells, pool 1 (3 donors), resting (IL-2 0 ng/mL); assay: as above; settings: 72 h
[25] = test system: SNK-6 (IL-2 2.5 ng/mL); assay: as above; settings: 72 h
[26] = test system: IMC-1 (IL-2 20 ng/mL); assay: as above; settings: 72 h
[27] = test system: KAI3 (IL-2 2.5 ng/mL); assay: as above; settings: 72 h
[28] = test system: normal NK cells expanded with K562-aAPC; assay: as above; settings: 72 h, IL-2 2.5 ng/mL
Experimental: as §1

CN(C)/N=N/c1[nH]cnc1C(N)=O [Dacarbazine] (max concentration tested 10000 nM)
Settings | drug sensitivity score
[1] | 0
[2] | 0
[3] | 2.15
[4] | 0
[5] | 0
[6] | 3.43
[7] | 0
[8] | 0
[9] | 0
[10] | 1.97
[11] | 0
[12] | 10.7
[13] | 0
[14] | 0

percent inhibition of viability [%]
Settings | 1 nM | 10 nM | 100 nM | 1000 nM | 10000 nM
[15] | 1.02 | -5.15 | 0.2 | -11.5 | -4.15
[16] | -2.92 | -5.5 | 2.66 | 4.39 | 31.8
[17] | -10.3 | -8.69 | -2.46 | -11.8 | -2.6
[18] | -14.1 | -10.7 | -2.39 | -8.2 | 3.49
[19] | -0.72 | -1.38 | 3.7 | 1.57 | 59.6
[20] | -11.1 | -14.5 | -3.48 | -12.7 | -1.95
[21] | -2.46 | -7.71 | -9.81 | -6.85 | -5.73
[22] | -15.6 | -10.8 | -1.7 | 0.09 | -2.93
[23] | -1.18 | -4.93 | -1.85 | 0.07 | 39.6
[24] | -7.07 | -16.7 | -8.98 | -35.2 | -22.9
[25] | 16.4 | 16 | 31.9 | 30.4 | 22.6
[26] | -2.15 | -3.53 | 1.36 | 1.13 | 5.24
[27] | -5.96 | -7.58 | -5.99 | -9.63 | 10.8
[28] | -6.74 | -2.31 | -4.77 | 1.92 | 10.3

COc1cc2ncnc(Nc3ccc(F)c(Cl)c3)c2cc1NC(=O)/C=C/CN1CCCCC1 [Dacomitinib] (max concentration tested 1000 nM)
Settings | drug sensitivity score
[1] | 2.02
[2] | 0.77
[3] | 1.38
[4] | 1.25
[5] | 0.2
[6] | 0
[7] | 0.79
[8] | 1.45
[9] | 8.95
[10] | 0
[11] | 2.49
[12] | 0.98
[13] | 0.74
[14] | 2.88

percent inhibition of viability [%]
Settings | 0.1 nM | 1 nM | 10 nM | 100 nM | 1000 nM
[15] | 2.94 | -9.71 | -7.32 | -13.9 | 28.8
[16] | 7.35 | 1.97 | 10.7 | 6.81 | 23.5
[17] | -2.98 | -1.98 | 1.99 | -4.15 | 33
[18] | 0.64 | 1.31 | -1.6 | -10.6 | 17.6
[19] | 5.15 | 4.77 | 7.83 | 2.51 | 14.2
[20] | 14.8 | 4.75 | 15.7 | -7.18 | 27.1
[21] | -5.58 | -2.85 | -0.73 | -3.8 | 35.9
[22] | 3.41 | 22.9 | 21.4 | 24.5 | 43.9
[23] | 10.5 | 10.2 | 7.74 | 5.43 | 16.9
[24] | 4.51 | -7.96 | 0.41 | -14.9 | 59.7
[25] | 6.36 | -3.37 | 6.76 | 1.63 | 22.4
[26] | 9.55 | 7.6 | 11.6 | 10.1 | 13.4
[27] | 7.94 | 10.2 | 11.4 | 7.46 | 31.4
[28] | 4.92 | 5.66 | 5.66 | 10.2 | 29.5

Cc1nc(Nc2ncc(C(=O)Nc3c(C)cccc3Cl)s2)cc(N2CCN(CCO)CC2)n1 [Dasatinib] (max concentration tested 1000 nM)
Settings | drug sensitivity score
[1] | 1.3
[2] | 6.61
[3] | 2.02
[4] | 0
[5] | 0
[6] | 4.71
[7] | 0.7
[8] | 1.68
[9] | 6.85
[10] | 0.45
[11] | 0
[12] | 2.07
[13] | 0
[14] | 2.92

percent inhibition of viability [%]
Settings | 0.1 nM | 1 nM | 10 nM | 100 nM | 1000 nM
[15] | -0.11 | 19.3 | 13.1 | 15.4 | 19.5
[16] | -0.77 | -3.69 | 1.85 | 9.09 | 26.2
[17] | -3.84 | 18.3 | 1.6 | 0.44 | 6.62
[18] | 0.39 | 14.8 | -5.88 | -19.1 | -19.4
[19] | -6.9 | -3.71 | 0.56 | 23 | 39.6
[20] | -15.2 | -20 | -16.4 | -1 | 22.6
[21] | 2.24 | 8.32 | 14.1 | 5.36 | 23.2
[22] | -6.62 | -1.79 | 12 | 30.8 | 50.2
[23] | -4.78 | -5.41 | 2.42 | 4.68 | 15
[24] | -8.65 | 23.5 | 15.4 | 12.1 | 3.61
[25] | 26.1 | -6.71 | -10.2 | 3.42 | 33.2
[26] | -4.24 | -3.41 | -7.41 | -6.36 | 8.01
[27] | -0.36 | 1.21 | 4.62 | 14.5 | 34
[28] | -0.95 | 4.04 | 19.2 | 3.69 | 18.7
